Assay: mn = molality of the nth substance listed, in mol/kg
Settings: 75 kPa, Liquid; for viscosity: Capillary tube (Ostwald / Ubbelohde) method; for speed of sound: Frequency=3 MHz, Single path-length method; for mass density: Vibrating tube method

NCC(=O)O [2-aminoacetic acid] + O
Settings | mass density [kg/m3] | speed of sound [m/s] | viscosity [mPa·s]
288.15 K, m1 = 0.1393 | 1003.55 | 1474.2 | 1.166
288.15 K, m1 = 0.2791 | 1007.86 | 1482 | 1.185
288.15 K, m1 = 0.4196 | 1012.03 | 1489.7 | 1.205
288.15 K, m1 = 0.56 | 1016.03 | 1497.4 | 1.226
288.15 K, m1 = 0.7019 | 1019.92 | 1505 | 1.248
288.15 K, m1 = 0.8453 | 1023.68 | 1512.6 | 1.27
288.15 K, m1 = 0.9876 | 1027.24 | 1520.1 | 1.295
288.15 K, m1 = 1.132 | 1030.68 | 1527.5 | 1.318
293.15 K, m1 = 0.1393 | 1002.61 | 1490.2 | 1.025
293.15 K, m1 = 0.2791 | 1006.87 | 1497.7 | 1.044
293.15 K, m1 = 0.4196 | 1010.97 | 1505.2 | 1.064
293.15 K, m1 = 0.56 | 1014.91 | 1512.5 | 1.084
293.15 K, m1 = 0.7019 | 1018.74 | 1519.8 | 1.104
293.15 K, m1 = 0.8453 | 1022.45 | 1527 | 1.125
293.15 K, m1 = 0.9876 | 1025.96 | 1534 | 1.146
293.15 K, m1 = 1.132 | 1029.37 | 1541 | 1.166
298.15 K, m1 = 0.1393 | 1001.4 | 1504.1 | 0.912
298.15 K, m1 = 0.2791 | 1005.6 | 1511.4 | 0.929
298.15 K, m1 = 0.4196 | 1009.68 | 1518.7 | 0.946
298.15 K, m1 = 0.56 | 1013.59 | 1525.8 | 0.964
298.15 K, m1 = 0.7019 | 1017.38 | 1532.8 | 0.982
298.15 K, m1 = 0.8453 | 1021.05 | 1539.8 | 0.999
298.15 K, m1 = 0.9876 | 1024.54 | 1546.6 | 1.011
298.15 K, m1 = 1.132 | 1027.89 | 1553.3 | 1.026
303.15 K, m1 = 0.1393 | 999.949 | 1516.3 | 0.82
303.15 K, m1 = 0.2791 | 1004.11 | 1523.4 | 0.839
303.15 K, m1 = 0.4196 | 1008.15 | 1530.5 | 0.853
303.15 K, m1 = 0.56 | 1012.03 | 1537.5 | 0.869
303.15 K, m1 = 0.7019 | 1015.8 | 1544.3 | 0.885
303.15 K, m1 = 0.8453 | 1019.44 | 1551.2 | 0.901
303.15 K, m1 = 0.9876 | 1022.91 | 1557.8 | 0.913
303.15 K, m1 = 1.132 | 1026.27 | 1564.5 | 0.929
308.15 K, m1 = 0.1393 | 998.286 | 1526.7 | 0.734
308.15 K, m1 = 0.2791 | 1002.41 | 1533.6 | 0.752
308.15 K, m1 = 0.4196 | 1006.42 | 1540.5 | 0.772
308.15 K, m1 = 0.56 | 1010.28 | 1547.2 | 0.785
308.15 K, m1 = 0.7019 | 1014.04 | 1553.9 | 0.804
308.15 K, m1 = 0.8453 | 1017.7 | 1560.5 | 0.815
308.15 K, m1 = 0.9876 | 1021.16 | 1567 | 0.825
308.15 K, m1 = 1.132 | 1024.55 | 1573.4 | 0.839

NCCC(=O)O [3-aminopropanoic acid] + O
Settings | mass density [kg/m3] | speed of sound [m/s] | viscosity [mPa·s]
288.15 K, m1 = 0.1393 | 1003.45 | 1475.7 | 1.179
288.15 K, m1 = 0.2789 | 1007.7 | 1484.8 | 1.214
288.15 K, m1 = 0.4194 | 1011.88 | 1493.8 | 1.252
288.15 K, m1 = 0.5603 | 1015.98 | 1502.7 | 1.291
288.15 K, m1 = 0.7021 | 1020 | 1511.6 | 1.332
288.15 K, m1 = 0.8451 | 1023.96 | 1520.4 | 1.372
288.15 K, m1 = 0.9881 | 1027.81 | 1529 | 1.414
288.15 K, m1 = 1.132 | 1031.61 | 1537.5 | 1.46
293.15 K, m1 = 0.1393 | 1002.51 | 1491.8 | 1.033
293.15 K, m1 = 0.2789 | 1006.72 | 1500.8 | 1.065
293.15 K, m1 = 0.4194 | 1010.86 | 1509.7 | 1.099
293.15 K, m1 = 0.5603 | 1014.91 | 1518.5 | 1.134
293.15 K, m1 = 0.7021 | 1018.9 | 1527.2 | 1.174
293.15 K, m1 = 0.8451 | 1022.82 | 1535.9 | 1.216
293.15 K, m1 = 0.9881 | 1026.64 | 1544.4 | 1.259
293.15 K, m1 = 1.132 | 1030.4 | 1552.7 | 1.307
298.15 K, m1 = 0.1393 | 1001.3 | 1505.5 | 0.9201
298.15 K, m1 = 0.2789 | 1005.48 | 1514.3 | 0.9466
298.15 K, m1 = 0.4194 | 1009.59 | 1522.9 | 0.9744
298.15 K, m1 = 0.5603 | 1013.63 | 1531.4 | 0.9995
298.15 K, m1 = 0.7021 | 1017.6 | 1539.9 | 1.034
298.15 K, m1 = 0.8451 | 1021.51 | 1548.2 | 1.062
298.15 K, m1 = 0.9881 | 1025.34 | 1556.4 | 1.1
298.15 K, m1 = 1.132 | 1029.1 | 1564.5 | 1.146
303.15 K, m1 = 0.1393 | 999.877 | 1517.7 | 0.824
303.15 K, m1 = 0.2789 | 1004.02 | 1526.1 | 0.8427
303.15 K, m1 = 0.4194 | 1008.09 | 1534.5 | 0.8667
303.15 K, m1 = 0.5603 | 1012.08 | 1542.8 | 0.8942
303.15 K, m1 = 0.7021 | 1016 | 1550.9 | 0.9256
303.15 K, m1 = 0.8451 | 1019.86 | 1559 | 0.959
303.15 K, m1 = 0.9881 | 1023.63 | 1566.9 | 1.001
303.15 K, m1 = 1.132 | 1027.33 | 1574.7 | 1.042
308.15 K, m1 = 0.1393 | 998.23 | 1527.9 | 0.733
308.15 K, m1 = 0.2789 | 1002.34 | 1536 | 0.7526
308.15 K, m1 = 0.4194 | 1006.39 | 1544 | 0.7692
308.15 K, m1 = 0.5603 | 1010.35 | 1551.9 | 0.7923
308.15 K, m1 = 0.7021 | 1014.25 | 1559.7 | 0.8219
308.15 K, m1 = 0.8451 | 1018.1 | 1567.4 | 0.8509
308.15 K, m1 = 0.9881 | 1021.85 | 1574.9 | 0.8756
308.15 K, m1 = 1.132 | 1025.53 | 1582.3 | 0.9126

NCCCC(=O)O [4-aminobutanoic acid] + O
Settings | mass density [kg/m3] | speed of sound [m/s] | viscosity [mPa·s]
288.15 K, m1 = 0.1389 | 1003.34 | 1478.5 | 1.204
288.15 K, m1 = 0.2788 | 1007.5 | 1490.3 | 1.252
288.15 K, m1 = 0.4194 | 1011.57 | 1501.8 | 1.313
288.15 K, m1 = 0.56 | 1015.51 | 1513 | 1.376
288.15 K, m1 = 0.702 | 1019.39 | 1523.9 | 1.452
288.15 K, m1 = 0.8449 | 1023.19 | 1534.5 | 1.515
288.15 K, m1 = 0.9892 | 1026.91 | 1544.8 | 1.591
288.15 K, m1 = 1.132 | 1030.5 | 1554.5 | 1.672
293.15 K, m1 = 0.1389 | 1002.43 | 1494.4 | 1.054
293.15 K, m1 = 0.2788 | 1006.57 | 1506 | 1.098
293.15 K, m1 = 0.4194 | 1010.61 | 1517.4 | 1.148
293.15 K, m1 = 0.56 | 1014.53 | 1528.5 | 1.206
293.15 K, m1 = 0.702 | 1018.37 | 1539.6 | 1.265
293.15 K, m1 = 0.8449 | 1022.12 | 1550.5 | 1.325
293.15 K, m1 = 0.9892 | 1025.79 | 1561.2 | 1.393
293.15 K, m1 = 1.132 | 1029.32 | 1571.5 | 1.464
298.15 K, m1 = 0.1389 | 1001.25 | 1508.1 | 0.936
298.15 K, m1 = 0.2788 | 1005.35 | 1519.3 | 0.975
298.15 K, m1 = 0.4194 | 1009.36 | 1530.3 | 1.022
298.15 K, m1 = 0.56 | 1013.22 | 1541.2 | 1.068
298.15 K, m1 = 0.702 | 1017.01 | 1551.9 | 1.125
298.15 K, m1 = 0.8449 | 1020.7 | 1562.2 | 1.178
298.15 K, m1 = 0.9892 | 1024.31 | 1572.5 | 1.243
298.15 K, m1 = 1.132 | 1027.75 | 1582.3 | 1.307
303.15 K, m1 = 0.1389 | 999.81 | 1520.1 | 0.835
303.15 K, m1 = 0.2788 | 1003.88 | 1530.9 | 0.874
303.15 K, m1 = 0.4194 | 1007.84 | 1541.6 | 0.91
303.15 K, m1 = 0.56 | 1011.67 | 1552.1 | 0.955
303.15 K, m1 = 0.702 | 1015.43 | 1562.4 | 0.994
303.15 K, m1 = 0.8449 | 1019.1 | 1572.4 | 1.037
303.15 K, m1 = 0.9892 | 1022.68 | 1582.3 | 1.095
303.15 K, m1 = 1.132 | 1026.12 | 1591.8 | 1.156
308.15 K, m1 = 0.1389 | 998.155 | 1530.4 | 0.753
308.15 K, m1 = 0.2788 | 1002.19 | 1540.9 | 0.788
308.15 K, m1 = 0.4194 | 1006.12 | 1551.3 | 0.822
308.15 K, m1 = 0.56 | 1009.94 | 1561.4 | 0.853
308.15 K, m1 = 0.702 | 1013.68 | 1571.3 | 0.894
308.15 K, m1 = 0.8449 | 1017.35 | 1581 | 0.94
308.15 K, m1 = 0.9892 | 1020.93 | 1590.6 | 0.991
308.15 K, m1 = 1.132 | 1024.37 | 1599.8 | 1.041
